Results on nine compounds are retold here after patent US7485721B2, “Substituted porphyrins” (Duke University, priority 2002, dated 2009).

The conditions of series [1]: equilibrium H3P^5+ = H2P^4+ + H^+; cited from earlier work.
Series [2] is described as follows: Spectrophotometric proton dissociation constant pKa2. It counts as physicochemical. Particulars: of the metal-free porphyrin H2T(alkyl)-2-PyP^4+; 25° C., ionic strength 0.10 (NaNO3/NaOH). How it is done:
Uv/vis spectroscopy. The uv/vis spectra were taken on a Shimadzu UV-2501 PC spectrophotometer at 25° C. The proton dissociation constants (pKa2), were determined spectrophotometrically at 25° C., at an ionic strength of 0.1 M (NaOH/NaNO3), as previously described.^4
The proton dissociation constants, Ka2 and Ka3 are defined as follows: H2P^4+ ? HP^3++H^+Ka2 [1] H3P^5+ ? H2P^4++H^+ Ka3 [2] As the alkyl chains lengthen the porphyrins become less hydrated and the separation of charges (eq) becomes less favorable, ie. pKa2 increases (FIG. 3 insert).

The subject of series [3] is SOD-deficient Escherchia coli. The conditions noted are these: aerobic conditions; cited from earlier work.
Series [4] is described as follows: Thin-layer chromatography, retention factor Rf as lipophilicity. It counts as physicochemical. The conditions noted are these: silica gel TLC plates, 1:1:8 KNO3-saturated H2O:H2O:acetonitrile; for Rf (compound path/solvent path): Mn(III) complex; for Rf (compound path/solvent path), metal-free porphyrin (in parentheses): corresponding metal-free porphyrin H2T(alkyl)-2-PyP^4+. From the text: Thin-layer chromatography. All ligands and their Mn(III) complexes were chromatographed on silica gel TLC plates using 1:1:8 KNO3-saturated H2O:H2O: acetonitrile. The atropoisomers could not be separated for the methyl^19 and ethyl analogues,^24 they begin to separate for the n-propyl and n-butyl species and were clearly resolved with the n-hexyl and n-octyl compounds.
Thin Layer Chromatography. The increase in the length of the alkyl chains is accompanied by an increase in the lipophilicity of the compounds as indicated by the increase in the retention factor Rf (porphyrin path/solvent path) (Table 1, FIG. 2). […] As the chains lengthen, their contribution to the overall lipophilicity increases, and eventually the n-octyl porphyrin and its Mn(III) complex are more alike in Rf than are methyl analogues.

The conditions of series [5]: stroke, diabetes, sickle cell disease, cancer/radiation; cited from earlier work.
The nature of series [6]: Mn loss from Mn porphyrins in 12 M HCl. It counts as physicochemical. How it is done: The half-lives for the acid and anion-catalyzed removal of zinc from Zn N-methylated derivatives^35 in 1.0 M HNO3 were 89 s for the meta, 165 s for the para, and 19 hours for the ortho ZnTM-2-PyP^4+. […] In addition to porphyrin ring distortion,^29-32 the steric hindrance and solvation effects imposed by the progressively longer alkyl chains may also contribute to the differences in metaladon/demetalation behavior.

Series [7] in a line: Stability of reduced Mn(II) porphyrins in excess ascorbic acid. Particulars: aerobic, within 125 min; 6 μM, 70-fold excess of ascorbic acid, pH 7.8, 0.1 M tris buffer; reduced Mn(II) form.
Protocol: Therefore, we also examined the behavior of the reduced and more biologically relevant Mn^IIT(alkyl)-2-PyP^4+ compounds. We compared the methyl, n-hexyl and n-octyl derivatives (6 μM) aerobically and anaerobically in the presence of a 70-fold excess of ascorbic acid (pH 7.8, 0.1 M tris buffer) and in the presence and absence of a 150-fold excess of EDTA.
A short description of series [8]: Cyclic voltammetry, metal-centered redox potential E1/2 of Mn(III)/Mn(II) couple. It counts as physicochemical. The conditions noted are these: 0.05 M phosphate buffer (pH 7.8, 0.1 M NaCl). As to the method:
Electrochemistry. Measurements were performed on a CH Instruments Model 600 Voltammetric Analyzer.^3.4 A three-electrode system in a small volume cell (0.5 mL to 3 mL), with a 3 mm-diameter glassy carbon button working electrode (Bioanalytical Systems), plus the Ag/AgCl reference and Pt auxilliary electrodes was used. Solutions contained 0.05 M phosphate buffer, pH 7.8, 0.1 M NaCl, and […] metalloporphyrin. The scan rates were 0.01-0.5 V/s, typically 0.1 V/s. The potentials were standardized against the potassium ferrocyanide/ferricyanide^20 and/or against Mn^IIITE-2-PyP^5+. All voltammograms were reversible.
Electrochemistry. […] The metal-centered redox potentials, E1/2 are in Table 1 and the representative voltammograms of the Mn^III/IITE-2-PyP^5+/4+ and Mn^III/IITnHex-2-PyP^5+/4+ compounds are shown in the Supporting Material, FIG. 6. Both lipophilicity (FIG. 2B) and E1/2 (FIG. 3B, insert) increase exponentially with the number of CH2 groups in the alkyl chains. Consequently, the increase in E1/2 is a linear function of Rf (FIG. 3B).

The nature of series [9]: Catalysis of O2^− dismutation, cytochrome c assay (xanthine/xanthine oxidase). It counts as biochemical. Particulars: 0.05 M phosphate buffer, pH 7.8, (25 ± 1) ° C. From the text: Catalysis of O2^− dismutation. We have previously shown that the O2^− /cytochrome c reduction assay gives the same catalytic rate constants as does pulse radiolysis for Mn^IIITE-2-PyP^5+, {Mn^IIIBVDME}2, {Mn^IIIBV}2 and MnCl2.^21 Therefore the convenient cytochrome c assay was used to characterize the series of Mn(III) N-alkylpyridylporphyrins. The xanthine/xanthine oxidase reaction was the source of O2^− and ferricytochrome c was used as the indicating scavenger for O2^−.^22 The reduction of cytochrome c was followed at 550 nm. Assays were conducted at (25±1) ° C., in 0.05 M phosphate buffer, pH 7.8, 0.1 mM EDTA, in the presence and absence of 15 μg/mL of catalase. Rate constants for the reaction of metalloporphyrins with O2′^− were based upon competition with 10 μM cytochrome c, kcyt c=2.6×10^5 M^−1 s^−1 as described elsewhere.^21 The O2^− was produced at the rate of 1.2 μM per minute. Any possible interference through inhibition of the xanthine/xanthine oxidase reaction by the test compounds was examined by following the rate of urate accumulation at 295 nm in the absence of cytochrome c. No reoxidation of cytochrome c by the metalloporphyrins was observed
Catalysis of O2^− dismutation. […] All of the manganese compounds are potent catalysts of O2^− dismutation with log kcat between 7.79 and 7.25.

The conditions of series [10]: 1.0 M HNO3, within a week; cited from earlier work.
For series [11] the following is noted: kcat=kred=kox; cited from earlier work.

For `C[n+]1cccc(-c2c3nc(c(-c4ccc[n+](C)c4)c4ccc([nH]4)c(-c4ccc[n+](C)c4)c4nc(c(-c5ccc[n+](C)c5)c5ccc2[nH]5)C=C4)C=C3)c1` [H2TM-3-PyP^4+], the pKa3 in series [1] was 1.8.
`C[n+]1ccc(-c2c3nc(c(-c4cc[n+](C)cc4)c4ccc([nH]4)c(-c4cc[n+](C)cc4)c4nc(c(-c5cc[n+](C)cc5)c5ccc2[nH]5)C=C4)C=C3)cc1` [H2TM-4-PyP^4+]: the pKa3 in series [1] is reported as 1.4.
`C[n+]1ccccc1-c1c2nc(c(-c3cccc[n+]3C)c3ccc([nH]3)c(-c3cccc[n+]3C)c3nc(c(-c4cccc[n+]4C)c4ccc1[nH]4)C=C3)C=C2.[Mn+3]` [Mn^IIITM-2-PyP^5+, Mn(III) meso tetrakis(N-methylpyridinium-2-yl)porphyrin] registered a pKa2 in series [2] of 10.9. For the same compound, the “growth of SOD-deficient E. coli” value in [3] is “allow SOD-deficient Escherchia coli to grow under aerobic conditions”. Also, in series [4], the “Rf (compound path/solvent path)” value is given as 0.09 and the “Rf (compound path/solvent path), metal-free porphyrin (in parentheses)” value worked out at 0.13. Further, the “protection in rodent models of oxidative stress” value in series [5] is reported as “offer protection in rodent models of oxidative stress”. The Mn lost result in [6] (12 M HCl, within a month) was “over 50%”. For the same compound, in series [7], the “degradation of Mn(II) porphyrin” value is recorded as −40%. Moreover, in [8], the E1/2 entry was “+220 mV vs NHE”. This compound also came in with a log kcat in [9] of 7.79.
In turn, `CCCC[n+]1ccccc1-c1c2nc(c(-c3cccc[n+]3CCCC)c3ccc([nH]3)c(-c3cccc[n+]3CCCC)c3nc(c(-c4cccc[n+]4CCCC)c4ccc1[nH]4)C=C3)C=C2.[Mn+3]` [Mn^IIITnBut-2-PyP^5+] showed a pKa2 in series [2] of 11.7. Besides, in [4], the “Rf (compound path/solvent path)” value was 0.33 and the “Rf (compound path/solvent path), metal-free porphyrin (in parentheses)” value came out at 0.46. Also, the E1/2 result in [8] is listed as “+254 mV vs NHE”. In [9], this compound came in with a log kcat of 7.25.
The compound `CCCCCC[n+]1ccccc1-c1c2nc(c(-c3cccc[n+]3CCCCCC)c3ccc([nH]3)c(-c3cccc[n+]3CCCCCC)c3nc(c(-c4cccc[n+]4CCCCCC)c4ccc1[nH]4)C=C3)C=C2.[Mn+3]` [Mn^IIITnHex-2-PyP^5+] returned a pKa2 in series [2] of 12.2. Besides, in [4], the “Rf (compound path/solvent path)” value amounted to 0.57 and the “Rf (compound path/solvent path), metal-free porphyrin (in parentheses)” value is reported as 0.63. Also, the “spectral change (Mn loss)” value in series [6] (solid dissolved in 12 M HCl, 3 months) was “the spectra did not change within 3 months”. Besides, the “degradation of Mn(II) porphyrin” value in [7] was “none”. Moreover, the E1/2 result in [8] is listed as “+314 mV vs NHE”. This compound also displayed a log kcat in series [9] of 7.48.
As for `CCCCCCCC[n+]1ccccc1-c1c2nc(c(-c3cccc[n+]3CCCCCCCC)c3ccc([nH]3)c(-c3cccc[n+]3CCCCCCCC)c3nc(c(-c4cccc[n+]4CCCCCCCC)c4ccc1[nH]4)C=C3)C=C2.[Mn+3]` [Mn^IIITnOct-2-PyP^5+], in series [2], the pKa2 was 13.2. In addition, in series [4], the “Rf (compound path/solvent path)” value was determined as 0.80 and the “Rf (compound path/solvent path), metal-free porphyrin (in parentheses)” value is listed as 0.86. Further, in [7], the “degradation of Mn(II) porphyrin” value is recorded as “none”. The E1/2 entry in series [8] is given as “+367 mV vs NHE”. In [9], this compound displayed a log kcat of 7.71.
For the compound `CCCCCC[n+]1ccccc1-c1c2nc(c(-c3cccc[n+]3CCCCCC)c3ccc([nH]3)c(-c3cccc[n+]3CCCCCC)c3nc(c(-c4cccc[n+]4CCCCCC)c4ccc1[nH]4)C=C3)C=C2.[Zn+2]` [ZnTnHex-2-PyP^4+], in series [10], the zinc loss result is on record as “No indication of zinc loss was found within a week”.
On to “CuZn—SOD: CuZn superoxide dismutase enzyme”, for which the kcat in [11] was 2e+09 M⁻¹ s⁻¹.
For the compound “meso tetrakis(N-ethylpyridinium-2-yl)porphyrins [Mn^IIITE-2-PyP^5+]”, the pKa2 in series [2] is given as 10.9. In addition, the “growth of SOD-deficient E. coli” value in series [3] is “allow SOD-deficient Escherchia coli to grow under aerobic conditions”. Moreover, in series [4], the “Rf (compound path/solvent path)” value is 0.13 and the “Rf (compound path/solvent path), metal-free porphyrin (in parentheses)” value is 0.21. In series [5], the “protection in rodent models of oxidative stress” value was “offer protection in rodent models of oxidative stress”. Further, in series [8], the E1/2 result was “+228 mV vs NHE”. The compound also gave a log kcat in series [9] of 7.76.
